Test results as given in patent US20020111274A1, “1-alkyl-3-[1-(substituted phenyl) benzotriazol-6-yl] uracils” (BASF Aktiengesellschaft, priority 2000, published 2002).

Key:
Parameters in all cases: scale not given here
ABUTH Velvetleaf [1] = test: Postemergence herbicidal evaluation, ABUTH; assay type: in vivo, Abutilon theophrasti, Medic.; details: postemergence spray, rated about two-three weeks after treatment
Experimental: (§1) In this evaluation, seedling plants are grown in jiffy flats for about two weeks. The test compounds are dispersed in 80/20 acetone/water mixtures containing 1.0% SUN-IT® II, a methylated seed oil, in sufficient quantities to provide the equivalent of about 0.006 kg to 0.400 kg per hectare of active compound when applied to the plants through a spray nozzle operating at 40 psi for a predetermined time. After spraying, the plants are placed on greenhouse benches and are cared for in accordance with conventional greenhouse procedures. Approximately two - three weeks after treatment, the seedling plants are examined and rated according to the rating system set forth below. Where more than one test is involved for a given compound, the data are averaged.

AMBEL Ragweed, Common [2] = test: Postemergence herbicidal evaluation, AMBEL; assay type: in vivo, Ambrosia artemisifolia, L.; details: postemergence spray, rated about two-three weeks after treatment
Experimental: as §1

CASOB Sicklepod [3] = test: Postemergence herbicidal evaluation, CASOB; assay type: in vivo, Cassia obtusifolia, L.; details: postemergence spray, rated about two-three weeks after treatment
Experimental: as §1

[4] = system: CHEAL Lambsquarters, Common; test: Postemergence herbicidal evaluation, CHEAL; assay type: in vivo, Chenopodium album, L.; details: postemergence spray, rated about two-three weeks after treatment
Experimental: as §1

ECHOG Barnyardgrass [5] = test: Postemergence herbicidal evaluation, ECHOG; assay type: in vivo, Echinochloa crus-galli, (L.) Beau; details: postemergence spray, rated about two-three weeks after treatment
Experimental: as §1

GALAP Galium [6] = test: Postemergence herbicidal evaluation, GALAP; assay type: in vivo, Galium aparine; details: postemergence spray, rated about two-three weeks after treatment
Experimental: as §1

[7] = system: IPOHE Morningglory, Ivyleaf; test: Postemergence herbicidal evaluation, IPOHE; assay type: in vivo, Ipomoea hederacea, (L.) Jacq.; details: postemergence spray, rated about two-three weeks after treatment
Experimental: as §1

SETVI Foxtail, Green [8] = test: Postemergence herbicidal evaluation, SETVI; assay type: in vivo, Setaria viridis, (L.) Beau; details: postemergence spray, rated about two-three weeks after treatment
Experimental: as §1

GLXMAW Soybean, Williams [9] = test: Postemergence herbicidal evaluation, GLXMAW; assay type: in vivo, Glycine max, (L.) Merr. cv Williams; details: postemergence spray, rated about two-three weeks after treatment
Experimental: as §1

[10] = system: TRZAWR Wheat, Winter, cv Riband; test: Postemergence herbicidal evaluation, TRZAWR; assay type: in vivo, Triticum aestivum; details: postemergence spray, rated about two-three weeks after treatment
Experimental: as §1

ORYSAT Rice, Tebonnet [11] = test: Postemergence herbicidal evaluation, ORYSAT; assay type: in vivo, Oryza sativa, (L.); details: postemergence spray, rated about two-three weeks after treatment
Experimental: as §1

ZEAMX Corn, Field [12] = test: Postemergence herbicidal evaluation, ZEAMX; assay type: in vivo, Zea mays, L. (Sammel-Bezeichnung); details: postemergence spray, rated about two-three weeks after treatment
Experimental: as §1

ABUTH Velvetleaf [13] = test: Preemergence herbicidal evaluation, ABUTH; assay type: in vivo, Abutilon theophrasti, Medic.; details: preemergence
From the text: (§2) The preemergence herbicidal activity of the test compounds of the present invention is exemplified by the following tests in which the seeds of a variety of monocotyledonous and dicotyledonous plants are separately mixed with potting soil and planted on top of approximately one inch of soil in separate pint cups. […] The treated cups are then placed on greenhouse benches, watered and cared for in accordance with conventional greenhouse procedures. From four to five weeks after treatment, the tests are terminated and each cup is examined and rated according to the rating system provided in Example 46.

AMBEL Ragweed, Common [14] = test: Preemergence herbicidal evaluation, AMBEL; assay type: in vivo, Ambrosia artemisifolia, L.; details: preemergence
From the text: as §2

CASOB Sicklepod [15] = test: Preemergence herbicidal evaluation, CASOB; assay type: in vivo, Cassia obtusifolia, L.; details: preemergence
From the text: as §2

[16] = system: CHEAL Lambsquarters, Common; test: Preemergence herbicidal evaluation, CHEAL; assay type: in vivo, Chenopodium album, L.; details: preemergence
From the text: as §2

ECHOG Barnyardgrass [17] = test: Preemergence herbicidal evaluation, ECHOG; assay type: in vivo, Echinochloa crus-galli, (L.) Beau; details: preemergence
From the text: as §2

GALAP Galium [18] = test: Preemergence herbicidal evaluation, GALAP; assay type: in vivo, Galium aparine; details: preemergence
From the text: as §2

[19] = system: IPOHE Morningglory, Ivyleaf; test: Preemergence herbicidal evaluation, IPOHE; assay type: in vivo, Ipomoea hederacea, (L.) Jacq.; details: preemergence
From the text: as §2

SETVI Foxtail, Green [20] = test: Preemergence herbicidal evaluation, SETVI; assay type: in vivo, Setaria viridis, (L.) Beau; details: preemergence
From the text: as §2

GLXMAW Soybean, Williams [21] = test: Preemergence herbicidal evaluation, GLXMAW; assay type: in vivo, Glycine max, (L.) Merr. cv Williams; details: preemergence
From the text: as §2

[22] = system: TRZAWR Wheat, Winter, cv Riband; test: Preemergence herbicidal evaluation, TRZAWR; assay type: in vivo, Triticum aestivum; details: preemergence
From the text: as §2

ORYSAT Rice, Tebonnet [23] = test: Preemergence herbicidal evaluation, ORYSAT; assay type: in vivo, Oryza sativa, (L.); details: preemergence
From the text: as §2

ZEAMX Corn, Field [24] = test: Preemergence herbicidal evaluation, ZEAMX; assay type: in vivo, Zea mays, L. (Sammel-Bezeichnung); details: preemergence
From the text: as §2

Cc1ccc(-n2nnc3cc(F)c(-n4c(=O)cc(C(F)(F)F)n(C)c4=O)cc32)cc1 [Example 19]
3.0: Postemergence herbicidal rating CHEAL ([4]; 0.032 kg/ha) | Postemergence herbicidal rating GALAP (GALAP Galium [6]; 0.016 kg/ha) | Postemergence herbicidal rating SETVI (SETVI Foxtail, Green [8]; 0.062 kg/ha) | Postemergence herbicidal rating ORYSAT (ORYSAT Rice, Tebonnet [11]; 0.032 kg/ha) | TRZAWR herbicidal rating ([22]; rate 0.125 kg/ha)
1.5: CASOB herbicidal rating (CASOB Sicklepod [15]; rate 0.032 kg/ha) | CASOB herbicidal rating (CASOB Sicklepod [15]; rate 0.062 kg/ha) | IPOHE herbicidal rating ([19]; rate 0.032 kg/ha) | GLXMAW herbicidal rating (GLXMAW Soybean, Williams [21]; rate 0.032 kg/ha) | ORYSAT herbicidal rating (ORYSAT Rice, Tebonnet [23]; rate 0.062 kg/ha) | ZEAMX herbicidal rating (ZEAMX Corn, Field [24]; rate 0.032 kg/ha)
0.5: ECHCG herbicidal rating (ECHOG Barnyardgrass [17]; rate 0.016 kg/ha) | GLXMAW herbicidal rating (GLXMAW Soybean, Williams [21]; rate 0.016 kg/ha) | ORYSAT herbicidal rating (ORYSAT Rice, Tebonnet [23]; rate 0.032 kg/ha)
2.0: Postemergence herbicidal rating CASOB (CASOB Sicklepod [3]; 0.032 kg/ha) | Postemergence herbicidal rating CASOB (CASOB Sicklepod [3]; 0.062 kg/ha) | Postemergence herbicidal rating CHEAL ([4]; 0.016 kg/ha) | Postemergence herbicidal rating ORYSAT (ORYSAT Rice, Tebonnet [11]; 0.008 kg/ha) | TRZAWR herbicidal rating ([22]; rate 0.062 kg/ha) | ORYSAT herbicidal rating (ORYSAT Rice, Tebonnet [23]; rate 0.125 kg/ha)
3.5: Postemergence herbicidal rating TRZAWR ([10]; 0.016 kg/ha)
5.5: Postemergence herbicidal rating GLXMAW (GLXMAW Soybean, Williams [9]; 0.016 kg/ha) | Postemergence herbicidal rating ZEAMX (ZEAMX Corn, Field [12]; 0.062 kg/ha) | AMBEL herbicidal rating (AMBEL Ragweed, Common [14]; rate 0.032 kg/ha) | IPOHE herbicidal rating ([19]; rate 0.062 kg/ha)
2.5: Postemergence herbicidal rating TRZAWR ([10]; 0.008 kg/ha) | Postemergence herbicidal rating ORYSAT (ORYSAT Rice, Tebonnet [11]; 0.016 kg/ha) | GLXMAW herbicidal rating (GLXMAW Soybean, Williams [21]; rate 0.062 kg/ha)
9.0: Postemergence herbicidal rating ABUTH (ABUTH Velvetleaf [1]; 0.008 kg/ha) | Postemergence herbicidal rating ABUTH (ABUTH Velvetleaf [1]; 0.016 kg/ha) | Postemergence herbicidal rating ABUTH (ABUTH Velvetleaf [1]; 0.032 kg/ha) | Postemergence herbicidal rating ABUTH (ABUTH Velvetleaf [1]; 0.062 kg/ha) | Postemergence herbicidal rating IPOHE ([7]; 0.032 kg/ha) | Postemergence herbicidal rating IPOHE ([7]; 0.062 kg/ha) | ABUTH herbicidal rating (ABUTH Velvetleaf [13]; rate 0.062 kg/ha) | ABUTH herbicidal rating (ABUTH Velvetleaf [13]; rate 0.125 kg/ha) | AMBEL herbicidal rating (AMBEL Ragweed, Common [14]; rate 0.125 kg/ha) | CHEAL herbicidal rating ([16]; rate 0.016 kg/ha) | CHEAL herbicidal rating ([16]; rate 0.032 kg/ha) | CHEAL herbicidal rating ([16]; rate 0.062 kg/ha) | CHEAL herbicidal rating ([16]; rate 0.125 kg/ha) | ECHCG herbicidal rating (ECHOG Barnyardgrass [17]; rate 0.125 kg/ha) | GALAP herbicidal rating (GALAP Galium [18]; rate 0.125 kg/ha) | SETVI herbicidal rating (SETVI Foxtail, Green [20]; rate 0.062 kg/ha) | SETVI herbicidal rating (SETVI Foxtail, Green [20]; rate 0.125 kg/ha)
8.0: AMBEL herbicidal rating (AMBEL Ragweed, Common [14]; rate 0.062 kg/ha) | IPOHE herbicidal rating ([19]; rate 0.125 kg/ha)
1.0: Postemergence herbicidal rating AMBEL (AMBEL Ragweed, Common [2]; 0.016 kg/ha) | Postemergence herbicidal rating CHEAL ([4]; 0.008 kg/ha) | ABUTH herbicidal rating (ABUTH Velvetleaf [13]; rate 0.016 kg/ha) | CASOB herbicidal rating (CASOB Sicklepod [15]; rate 0.016 kg/ha) | CASOB herbicidal rating (CASOB Sicklepod [15]; rate 0.125 kg/ha) | IPOHE herbicidal rating ([19]; rate 0.016 kg/ha) | TRZAWR herbicidal rating ([22]; rate 0.032 kg/ha) | ZEAMX herbicidal rating (ZEAMX Corn, Field [24]; rate 0.016 kg/ha)
5.0: Postemergence herbicidal rating AMBEL (AMBEL Ragweed, Common [2]; 0.062 kg/ha) | Postemergence herbicidal rating CHEAL ([4]; 0.062 kg/ha) | Postemergence herbicidal rating ZEAMX (ZEAMX Corn, Field [12]; 0.032 kg/ha)
6.5: Postemergence herbicidal rating GLXMAW (GLXMAW Soybean, Williams [9]; 0.032 kg/ha) | ABUTH herbicidal rating (ABUTH Velvetleaf [13]; rate 0.032 kg/ha) | ZEAMX herbicidal rating (ZEAMX Corn, Field [24]; rate 0.125 kg/ha)
4.0: Postemergence herbicidal rating AMBEL (AMBEL Ragweed, Common [2]; 0.032 kg/ha) | Postemergence herbicidal rating GALAP (GALAP Galium [6]; 0.032 kg/ha) | Postemergence herbicidal rating GALAP (GALAP Galium [6]; 0.062 kg/ha) | Postemergence herbicidal rating IPOHE ([7]; 0.008 kg/ha) | Postemergence herbicidal rating IPOHE ([7]; 0.016 kg/ha) | Postemergence herbicidal rating TRZAWR ([10]; 0.032 kg/ha) | Postemergence herbicidal rating ORYSAT (ORYSAT Rice, Tebonnet [11]; 0.062 kg/ha) | ECHCG herbicidal rating (ECHOG Barnyardgrass [17]; rate 0.032 kg/ha) | GLXMAW herbicidal rating (GLXMAW Soybean, Williams [21]; rate 0.125 kg/ha) | ZEAMX herbicidal rating (ZEAMX Corn, Field [24]; rate 0.062 kg/ha)
0.0: Postemergence herbicidal rating AMBEL (AMBEL Ragweed, Common [2]; 0.008 kg/ha) | Postemergence herbicidal rating CASOB (CASOB Sicklepod [3]; 0.008 kg/ha) | Postemergence herbicidal rating CASOB (CASOB Sicklepod [3]; 0.016 kg/ha) | Postemergence herbicidal rating ECHCG (ECHOG Barnyardgrass [5]; 0.008 kg/ha) | Postemergence herbicidal rating ECHCG (ECHOG Barnyardgrass [5]; 0.016 kg/ha) | Postemergence herbicidal rating ECHCG (ECHOG Barnyardgrass [5]; 0.032 kg/ha) | Postemergence herbicidal rating ECHCG (ECHOG Barnyardgrass [5]; 0.062 kg/ha) | Postemergence herbicidal rating GALAP (GALAP Galium [6]; 0.008 kg/ha) | Postemergence herbicidal rating SETVI (SETVI Foxtail, Green [8]; 0.008 kg/ha) | Postemergence herbicidal rating SETVI (SETVI Foxtail, Green [8]; 0.016 kg/ha) | Postemergence herbicidal rating SETVI (SETVI Foxtail, Green [8]; 0.032 kg/ha) | GALAP herbicidal rating (GALAP Galium [18]; rate 0.016 kg/ha) | GALAP herbicidal rating (GALAP Galium [18]; rate 0.032 kg/ha) | GALAP herbicidal rating (GALAP Galium [18]; rate 0.062 kg/ha) | TRZAWR herbicidal rating ([22]; rate 0.016 kg/ha) | ORYSAT herbicidal rating (ORYSAT Rice, Tebonnet [23]; rate 0.016 kg/ha)
4.5: Postemergence herbicidal rating GLXMAW (GLXMAW Soybean, Williams [9]; 0.008 kg/ha) | Postemergence herbicidal rating TRZAWR ([10]; 0.062 kg/ha) | Postemergence herbicidal rating ZEAMX (ZEAMX Corn, Field [12]; 0.008 kg/ha) | Postemergence herbicidal rating ZEAMX (ZEAMX Corn, Field [12]; 0.016 kg/ha) | AMBEL herbicidal rating (AMBEL Ragweed, Common [14]; rate 0.016 kg/ha) | SETVI herbicidal rating (SETVI Foxtail, Green [20]; rate 0.016 kg/ha)
7.0: ECHCG herbicidal rating (ECHOG Barnyardgrass [17]; rate 0.062 kg/ha) | SETVI herbicidal rating (SETVI Foxtail, Green [20]; rate 0.032 kg/ha)
7.5: Postemergence herbicidal rating GLXMAW (GLXMAW Soybean, Williams [9]; 0.062 kg/ha)
